Source: PubChem BioAssay AID248 (DTP/NCI, 2004)
Values joined by “and” are separate entries in the source; they are usually repeats but may differ in a detail not shown here. Equal values may be shown once. Toxic doses and inconclusive results are not listed. No stated cut-off is given here; in the data, active means T/C of 150% or more; inactive means T/C below 125%.

System: L1210 leukemia ip in BDF1 mice, survival T/C
Assay: NCI In Vivo Anticancer Drug Screen. Data for tumor model L1210 Leukemia (intraperitoneal) in B6D2F1 (BDF1) mice
Conditions: endpoint: mean survival time, higher = longer survival
Outline: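 Each compound was tested against a transplantable tumor grown in mice. The endpoint was survival, with treated animals benchmarked against vehicle controls as a simple ratio.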

[1] = dose: 100.0 mg/kg/injection, schedule: Q04DX003 (ip), vehicle: saline
[2] = dose: 200.0 mg/kg/injection, schedule: Q04DX003 (ip), vehicle: saline
[3] = dose: 400.0 mg/kg/injection, schedule: Q04DX003 (ip), vehicle: saline
[4] = dose: 100.0 mg/kg/injection, schedule: Q01DX009 (ip), vehicle: Klucel (hydroxypropylcellulose) (HPC)
[5] = dose: 100.0 mg/kg/injection, schedule: Q04DX003 (ip), vehicle: Klucel (hydroxypropylcellulose) (HPC)
[6] = dose: 200.0 mg/kg/injection, schedule: Q04DX003 (ip), vehicle: Klucel (hydroxypropylcellulose) (HPC)
[7] = dose: 400.0 mg/kg/injection, schedule: Q04DX003 (ip), vehicle: Klucel (hydroxypropylcellulose) (HPC)
[8] = dose: 100.0 mg/kg/injection, schedule: Q04DX002 (ip), vehicle: saline with Tween-80
[9] = dose: 200.0 mg/kg/injection, schedule: Q04DX002 (ip), vehicle: saline with Tween-80
[10] = dose: 100.0 mg/kg/injection, schedule: Q01DX001 (ip), vehicle: Klucel (hydroxypropylcellulose) (HPC)
[11] = dose: 50.0 mg/kg/injection, schedule: Q01DX009 (ip), vehicle: saline with Tween-80
[12] = dose: 100.0 mg/kg/injection, schedule: Q01DX009 (ip), vehicle: saline with Tween-80
[13] = dose: 200.0 mg/kg/injection, schedule: Q01DX009 (ip), vehicle: saline with Tween-80

Measured: T/C

C/C=C/COc1cc[n+]([O-])cc1
inactive: [1] 102 % of control | [2] 107 % of control

CCCCCCCNN=C(N)N
inactive: dose: 100.0 mg/kg/injection, schedule: Q01DX001 (ip), vehicle: saline 98 % of control | [1] 111 % of control | dose: 200.0 mg/kg/injection, schedule: Q01DX001 (ip), vehicle: saline 98 % of control | [2] 95 % of control | dose: 400.0 mg/kg/injection, schedule: Q01DX001 (ip), vehicle: saline 97 % of control | [3] 117 % of control

CCCCCCCCCCCCCCC(=O)c1ccccc1
inactive: [4] 100 % of control | [5] 105 % of control | dose: 200.0 mg/kg/injection, schedule: Q01DX009 (ip), vehicle: Klucel (hydroxypropylcellulose) (HPC) 102 % of control | [6] 102 % of control | dose: 400.0 mg/kg/injection, schedule: Q01DX009 (ip), vehicle: Klucel (hydroxypropylcellulose) (HPC) 95 % of control | [7] 104 % of control

CCOC(=O)c1cnc(C)nc1Nc1ccccc1C
inactive: [5] 88 % of control | [6] 98 % of control | [7] 105 % of control

CC/C(C)=C\CC/C(C)=C/COc1cccc(CC)c1
inactive: [8] 100 % of control | [9] 94 % of control | dose: 400.0 mg/kg/injection, schedule: Q04DX002 (ip), vehicle: saline with Tween-80 94 % of control

O=S(=O)(CBr)N1CCOCC1
inactive: dose: 50.0 mg/kg/injection, schedule: Q04DX003 (ip), vehicle: saline with Tween-80 93 % of control | dose: 100.0 mg/kg/injection, schedule: Q04DX003 (ip), vehicle: saline with Tween-80 98 % of control | dose: 200.0 mg/kg/injection, schedule: Q04DX003 (ip), vehicle: saline with Tween-80 98 % of control

O=C1C=CC(CCCCCn2ccc(=O)[nH]c2=O)C(=O)N1 (configuration not stated)
inactive: [1] 105 % of control | [2] 96 % of control | [3] 97 % of control

Cn1c2c(c3ccccc31)=NN1CCN=C1N=2
inactive: dose: 6.25 mg/kg/injection, schedule: Q04DX002 (ip), vehicle: saline 107 % of control | dose: 12.5 mg/kg/injection, schedule: Q04DX002 (ip), vehicle: saline 103 % of control

CC(=O)NC(C)(SC(c1ccccc1)c1ccccc1)C(=O)O (configuration not stated)
inactive: [10] 100 % of control | dose: 200.0 mg/kg/injection, schedule: Q01DX001 (ip), vehicle: Klucel (hydroxypropylcellulose) (HPC) 100 % of control | dose: 400.0 mg/kg/injection, schedule: Q01DX001 (ip), vehicle: Klucel (hydroxypropylcellulose) (HPC) 105 % of control

COc1cc2c(c(OC)c1OC)-c1ccc(N)c(=O)cc1[C@@H](NC(C)=O)CC2
inactive: dose: 0.5 mg/kg/injection, schedule: Q01DX015 (ip), vehicle: saline 116 % of control | dose: 1.0 mg/kg/injection, schedule: Q01DX015 (ip), vehicle: saline 118 % of control | dose: 2.0 mg/kg/injection, schedule: Q01DX001 (ip), vehicle: saline 112 % of control | dose: 2.0 mg/kg/injection, schedule: Q01DX015 (ip), vehicle: saline 92 % of control | dose: 4.0 mg/kg/injection, schedule: Q01DX001 (ip), vehicle: saline 100 % of control | dose: 4.0 mg/kg/injection, schedule: Q01DX015 (ip), vehicle: saline 116 % of control | dose: 8.0 mg/kg/injection, schedule: Q01DX001 (ip), vehicle: saline 98 % of control | dose: 16.0 mg/kg/injection, schedule: Q01DX001 (ip), vehicle: saline 104 % of control

CCOC(C#CC1CCCC1)OCC
inactive: [11] 95 % of control | [12] 92 % of control | [13] 100 % of control

CCCN(CCC)C[Si](C)(C)C
inactive: dose: 12.5 mg/kg/injection, schedule: Q01DX001 (ip), vehicle: saline 121 % of control | dose: 25.0 mg/kg/injection, schedule: Q01DX001 (ip), vehicle: saline 105 % of control | dose: 50.0 mg/kg/injection, schedule: Q01DX001 (ip), vehicle: saline 111 % of control

[NH-]C(CC(N)=O)C(=O)O.[NH-]C(CC(N)=O)C(=O)O.[Pd+2] (configuration not stated)
inactive: [11] 93 % of control | [12] 101 % of control | [8] 93 % of control | [13] 108 % of control | [9] 97 % of control

O=C(OCC(Cl)(Cl)Cl)c1ccc(Cl)cc1
inactive: dose: 100.0 mg/kg/injection, schedule: Q04DX002 (ip), vehicle: other 97 % of control | dose: 200.0 mg/kg/injection, schedule: Q04DX002 (ip), vehicle: other 97 % of control | dose: 400.0 mg/kg/injection, schedule: Q04DX002 (ip), vehicle: other 97 % of control

NNc1nncc(-c2ccccc2)n1
inactive: dose: 25.0 mg/kg/injection, schedule: Q01DX001 (ip), vehicle: other 100 % of control | dose: 50.0 mg/kg/injection, schedule: Q01DX001 (ip), vehicle: other 103 % of control | dose: 200.0 mg/kg/injection, schedule: Q01DX001 (ip), vehicle: other 105 % of control

CC(=O)NC1C(OC(=O)c2ccccc2)OC2COCOC2C1OC(=O)c1ccccc1 (configuration not stated)
inactive: dose: 100.0 mg/kg/injection, schedule: Q01DX001 (ip), vehicle: saline with Tween-80 90 % of control | dose: 200.0 mg/kg/injection, schedule: Q01DX001 (ip), vehicle: saline with Tween-80 97 % of control | dose: 400.0 mg/kg/injection, schedule: Q01DX001 (ip), vehicle: saline with Tween-80 92 % of control

COc1ccc(O)c(C=O)c1
inactive: [12] 108 % of control

CC1CC(C)(C)OCO1 (configuration not stated)
inactive: [5] 100 % of control | [6] 93 % of control | [7] 86 % of control

O=S(N=C(C(F)(F)F)C(F)(F)F)C(F)(F)F (configuration not stated)
inactive: dose: 50.0 mg/kg/injection, schedule: Q01DX001 (ip), vehicle: Klucel (hydroxypropylcellulose) (HPC) 92 % of control | [10] 106 % of control

NNC(=O)C1CC1
inactive: dose: 12.5 mg/kg/injection, schedule: Q04DX003 (ip), vehicle: saline 101 % of control | dose: 25.0 mg/kg/injection, schedule: Q04DX003 (ip), vehicle: saline 97 % of control | dose: 50.0 mg/kg/injection, schedule: Q04DX003 (ip), vehicle: saline 96 % of control and 103 % of control

CC(=O)CC(=O)Nc1ccc2ccccc2c1
inactive: [4] 98 % of control | [5] 92 % of control | [6] 97 % of control | [7] 92 % of control

CCCCN(C)N=Nc1ccc(CCC(=O)NN)cc1
inactive: dose: 33.0 mg/kg/injection, schedule: Q01DX009 (ip), vehicle: carboxymethylcellulose (CMC) 107 % of control | dose: 50.0 mg/kg/injection, schedule: Q01DX009 (ip), vehicle: carboxymethylcellulose (CMC) 101 % of control

C1CN(CC2CO2)CCO1 (configuration not stated)
inactive: dose: 100.0 mg/kg/injection, schedule: Q01DX009 (ip), vehicle: saline 105 % of control | dose: 200.0 mg/kg/injection, schedule: Q01DX009 (ip), vehicle: saline 117 % of control | dose: 400.0 mg/kg/injection, schedule: Q01DX009 (ip), vehicle: saline 105 % of control

CN=C1N[N+]2=CCSCC2(C)S1 (configuration not stated)
inactive: dose: 0.2 mg/kg/injection, schedule: Q03HX024 (ip), vehicle: saline 90 % of control | dose: 0.39 mg/kg/injection, schedule: Q03HX024 (ip), vehicle: saline 98 % of control | dose: 0.78 mg/kg/injection, schedule: Q03HX024 (ip), vehicle: saline 98 % of control | dose: 1.56 mg/kg/injection, schedule: Q03HX024 (ip), vehicle: saline 95 % of control | dose: 3.13 mg/kg/injection, schedule: Q03HX024 (ip), vehicle: saline 105 % of control
